Laboratory results reported in patent US4504481A, “Benzhydrylpiperazine derivatives, process for their preparation and pharmaceutical compositions containing them” (Richter Gedeon Vegyeszeti Gyar Rt., priority 1982, dated 1985).

Key:
[1] = acute oral toxicity; details: in vivo; rat, single 500 mg./kg. oral dose, 14 days observation, n=10; read-out: Perished animals
Description: The acute toxicity of the compounds having the formula (I) was tested on H-Wistar rats of both sexes, each weighing 160 to 180 g. The compounds were administered in a single 500 mg./kg. oral dose.

[2] = H. Ippen: Index Pharmacorum (1970); cited from earlier work
[3] = system: hexobarbital oxidase; experiment: in vivo hexobarbital narcosis period (change of hexobarbital oxidase activity); set-up: species or system Female Hann.-Wistar rats; details: rat, hexobarbital sodium 60 mg./kg. i.v., ± S.E., n=10; for Hexobarbital narcosis period in % of control, 1 hour: 1 hour after administration, control 44.3 ± 5.67 min.; for Hexobarbital narcosis period in % of control, 24 hours: 24 hours after administration, control 47.0 ± 5.21 min.
Description: The enzyme inhibiting activity of the new compounds was tested in vivo, by measuring the change of hexobarbital oxidase activity. Female Hann.-Wistarrats, each weighing 50 to 60 g. were treated orally with a single 40 mg./kg. dose of the test compound. One and 24 hours after the administration of the active ingredient, the animals were narcotized with a 60 mg./kg. i.v. dosage of hexobarbital sodium, and the time elapsed until complete wakening was measured (Noordhoek, J.: Eur. J. Pharmacol., 3, 242 (1968)). The data were recorded, and the mean values, the standard errors as well as the percentage increase with respect to the controls were calculated for each group. […] The hexobarbital concentration of the plasm, measured on the instant wakening, was the same for both the treated and the control animals, and thus the increase of narcosis period was not due to a certain central nervous interaction (Jori, A. et al.: Biochem. Pharmacol., 19, 2687 (1970)).
The control group was treated with placebo.

[4] = system: aminopyrine demethylase; experiment: aminopyrine demethylase activity of liver after oral treatment (formaldehyde formed); assay type: in vivo, Female H.-Wistar rats; details: rat liver, 2 hours after single 40 mg./kg. oral dose; ± S.E.; control 260.7 ± 11.2 nmoles/g. of liver/min.
Description: (§1) The enzyme inhibiting activity of the compounds of the formula (I) was further tested by determining the activity of the polysubstrate liver monooxygenase enzyme system after treatment with placebo and the compounds according to the invention, respectively. Female H.-Wistar rats weighing 50 to 60 g. each were administered a single 40 mg./kg. oral dose of the test compounds. Two hours after treatment the animals were decapitated and the livers were removed. After rinsing with a physiological saline solution at 0° C., drying and weighing, the livers were homogenized in a 0.1 molar Tris-HCl buffer (pH=7.4), containing 1.15% of potassium chloride at 0° C., centrifuged at 9000 g for 20 minutes, and the supernatant (postmitochondrial fraction) was used for further investigations. The microsomal fraction was prepared following the method developed by Cinti D. L. et al.: Biochem. Pharmacol., 21, 3249 (1972). The activity of aniline hydroxylase was determined from the velocity of p-amino-phenol formation according to Chabra R. S. et al.: Toxicol. Appl. Pharmacol. 22, 50 (1972). The activity of the aminopyrine demethylase was measured from the amount of the formaldehyde formed, according to Gourlay G. K. et al: Biochem. Pharmacol., 27, 965 (1978). The control groups were treated with placebo. The results are shown in Table 2, expressed in percentage of the control.

[5] = system: aniline hydroxylase; experiment: aniline hydroxylase activity of liver after oral treatment (p-amino-phenol formation); assay type: in vivo, Female H.-Wistar rats; details: rat liver, 2 hours after single 40 mg./kg. oral dose; ± S.E.; control 19.8 ± 0.53 nmoles/g. of liver/min.
Description: as §1

## CCCC(C(=O)OCCN(CC)CC)(c1ccccc1)c1ccccc1 [Proadiphene, (2-diethylaminoethyl)-α,α-diphenyl valerate, reference compound]
[1]
  mortality at 336 h: 90%
[2]
  anticonvulsive side effect: exerted an anticonvulsive side effect
[3]; reference dose 100 mg./kg.
  Hexobarbital narcosis period in % of control, 1 hour: 241 ± 9.6 % of control
  Hexobarbital narcosis period in % of control, 24 hours: 44 ± 5.7 % of control

## CCC(O)(c1ccc(OCCCN2CCN(C(c3ccccc3)c3ccccc3)CC2)cc1)c1ccccc1OC (stereo not drawn) [A, α-ethyl-α-(2-methoxyphenyl)-4-[3-(4-benzhydryl-piperazin-1-yl)-propoxy]-benzylalcohol]
[4]
  Aminopyrine demethylase activity, in percentage of the control: 71 ± 8.1 % of control
[1]
  mortality at 336 h: 0%
[5]
  Aniline hydroxylase activity, in percentage of the control: 72 ± 5.8 % of control
[3]; single oral dose 40 mg./kg.
  Hexobarbital narcosis period in % of control, 1 hour: 116 ± 6.7 % of control
  Hexobarbital narcosis period in % of control, 24 hours: 172 ± 8.7 % of control
